The target in experiment [1] is Cyclin-dependent kinase 5/CDK5 activator 1 (Homo sapiens) (UniProt Q00535+Q15078). Nature of the experiment: Inhibition of CDK5/p35 at 0.1 uM; values are per cent of control.
In experiment [2] the target is Tyrosine-protein kinase Fer (Homo sapiens) (UniProt P16591). As to the kind of experiment: Inhibition of Fer at 1 uM; values are per cent of control.
In experiment [3] the target is Calcium/calmodulin-dependent protein kinase type 1 (Homo sapiens) (UniProt Q14012). As to the kind of experiment: Inhibition of CaMK1 at 0.1 uM; values are per cent of control.
Experiment [4] addresses T1, Protein kinase C iota type (Homo sapiens) (UniProt P41743).
T1 sequence (whole entry): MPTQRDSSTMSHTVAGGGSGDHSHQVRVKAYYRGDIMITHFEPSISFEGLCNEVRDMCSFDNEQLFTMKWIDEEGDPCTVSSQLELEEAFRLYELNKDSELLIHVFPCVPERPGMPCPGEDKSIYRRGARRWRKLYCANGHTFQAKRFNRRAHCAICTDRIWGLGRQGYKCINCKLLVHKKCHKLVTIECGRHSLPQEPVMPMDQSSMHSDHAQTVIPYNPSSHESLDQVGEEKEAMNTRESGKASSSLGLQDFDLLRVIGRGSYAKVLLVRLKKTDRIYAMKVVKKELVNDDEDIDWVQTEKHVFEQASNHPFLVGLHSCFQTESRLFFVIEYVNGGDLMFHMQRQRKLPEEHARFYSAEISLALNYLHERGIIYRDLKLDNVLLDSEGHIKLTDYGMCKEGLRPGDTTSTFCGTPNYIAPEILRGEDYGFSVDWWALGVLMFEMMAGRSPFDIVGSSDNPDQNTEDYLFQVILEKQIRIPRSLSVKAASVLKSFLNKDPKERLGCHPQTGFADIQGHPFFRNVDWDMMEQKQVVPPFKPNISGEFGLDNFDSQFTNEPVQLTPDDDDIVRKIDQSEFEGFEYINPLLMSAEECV
As to the kind of experiment: Inhibition of PKCiota at 1 uM; values are per cent of control.

Experiment [5] addresses T2, Ephrin type-A receptor 1 (Homo sapiens) (UniProt P21709).
T2 sequence (whole entry): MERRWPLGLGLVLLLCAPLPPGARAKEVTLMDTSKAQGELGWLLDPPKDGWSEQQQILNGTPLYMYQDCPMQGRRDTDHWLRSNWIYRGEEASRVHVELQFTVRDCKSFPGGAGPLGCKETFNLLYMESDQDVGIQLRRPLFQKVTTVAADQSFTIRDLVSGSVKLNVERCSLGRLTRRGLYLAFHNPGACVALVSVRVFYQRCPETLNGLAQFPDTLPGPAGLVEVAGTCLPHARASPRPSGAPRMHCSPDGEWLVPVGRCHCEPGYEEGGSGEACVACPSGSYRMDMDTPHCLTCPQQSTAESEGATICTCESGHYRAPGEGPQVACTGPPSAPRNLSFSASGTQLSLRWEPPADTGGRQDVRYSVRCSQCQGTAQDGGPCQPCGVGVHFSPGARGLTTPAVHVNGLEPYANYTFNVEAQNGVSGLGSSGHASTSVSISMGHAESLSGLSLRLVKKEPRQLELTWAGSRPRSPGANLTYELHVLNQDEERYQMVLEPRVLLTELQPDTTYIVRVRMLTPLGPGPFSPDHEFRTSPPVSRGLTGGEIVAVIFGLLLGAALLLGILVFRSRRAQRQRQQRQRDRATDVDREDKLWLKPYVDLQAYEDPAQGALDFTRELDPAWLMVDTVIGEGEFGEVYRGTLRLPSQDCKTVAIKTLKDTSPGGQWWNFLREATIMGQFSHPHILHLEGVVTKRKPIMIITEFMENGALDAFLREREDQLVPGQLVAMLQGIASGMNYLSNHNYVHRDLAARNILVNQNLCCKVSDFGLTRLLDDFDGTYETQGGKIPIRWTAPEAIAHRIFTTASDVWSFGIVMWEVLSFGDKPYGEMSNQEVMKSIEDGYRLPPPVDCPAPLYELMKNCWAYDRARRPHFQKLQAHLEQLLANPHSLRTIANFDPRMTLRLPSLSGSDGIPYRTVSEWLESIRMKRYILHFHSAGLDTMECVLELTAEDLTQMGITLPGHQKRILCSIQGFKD
Nature of the experiment: Inhibition of EphA1 at 1 uM; values are per cent of control.

Experiment [6] has as its target T3, Tyrosine-protein kinase ZAP-70 (Homo sapiens) (UniProt P43403).
T3 sequence (whole entry): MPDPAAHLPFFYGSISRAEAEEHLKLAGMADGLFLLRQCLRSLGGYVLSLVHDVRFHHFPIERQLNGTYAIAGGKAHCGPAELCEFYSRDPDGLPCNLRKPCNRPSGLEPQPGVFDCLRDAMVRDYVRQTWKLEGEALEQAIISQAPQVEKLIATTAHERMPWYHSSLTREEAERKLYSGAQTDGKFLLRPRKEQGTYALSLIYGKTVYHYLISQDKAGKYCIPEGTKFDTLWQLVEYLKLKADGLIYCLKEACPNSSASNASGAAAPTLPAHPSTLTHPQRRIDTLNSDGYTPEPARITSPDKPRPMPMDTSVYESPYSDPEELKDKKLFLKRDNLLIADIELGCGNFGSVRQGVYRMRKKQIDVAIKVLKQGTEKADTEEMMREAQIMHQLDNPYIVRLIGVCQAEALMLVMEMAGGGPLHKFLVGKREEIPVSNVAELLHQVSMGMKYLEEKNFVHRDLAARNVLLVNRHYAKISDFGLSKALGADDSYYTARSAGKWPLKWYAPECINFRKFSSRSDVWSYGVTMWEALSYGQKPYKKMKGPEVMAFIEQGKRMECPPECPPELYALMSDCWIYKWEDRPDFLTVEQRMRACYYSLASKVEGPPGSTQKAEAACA
Nature of the experiment: Inhibition of ZAP70 at 1 uM; values are per cent of control.

Experiment [7] deals with Serine/threonine-protein kinase N2 (Homo sapiens) (UniProt Q16513). As to the kind of experiment: Inhibition of PRK2 at 1 uM; values are per cent of control.
Chain of Serine/threonine-protein kinase N2 (Homo sapiens) (Q16513 whole entry, looked up): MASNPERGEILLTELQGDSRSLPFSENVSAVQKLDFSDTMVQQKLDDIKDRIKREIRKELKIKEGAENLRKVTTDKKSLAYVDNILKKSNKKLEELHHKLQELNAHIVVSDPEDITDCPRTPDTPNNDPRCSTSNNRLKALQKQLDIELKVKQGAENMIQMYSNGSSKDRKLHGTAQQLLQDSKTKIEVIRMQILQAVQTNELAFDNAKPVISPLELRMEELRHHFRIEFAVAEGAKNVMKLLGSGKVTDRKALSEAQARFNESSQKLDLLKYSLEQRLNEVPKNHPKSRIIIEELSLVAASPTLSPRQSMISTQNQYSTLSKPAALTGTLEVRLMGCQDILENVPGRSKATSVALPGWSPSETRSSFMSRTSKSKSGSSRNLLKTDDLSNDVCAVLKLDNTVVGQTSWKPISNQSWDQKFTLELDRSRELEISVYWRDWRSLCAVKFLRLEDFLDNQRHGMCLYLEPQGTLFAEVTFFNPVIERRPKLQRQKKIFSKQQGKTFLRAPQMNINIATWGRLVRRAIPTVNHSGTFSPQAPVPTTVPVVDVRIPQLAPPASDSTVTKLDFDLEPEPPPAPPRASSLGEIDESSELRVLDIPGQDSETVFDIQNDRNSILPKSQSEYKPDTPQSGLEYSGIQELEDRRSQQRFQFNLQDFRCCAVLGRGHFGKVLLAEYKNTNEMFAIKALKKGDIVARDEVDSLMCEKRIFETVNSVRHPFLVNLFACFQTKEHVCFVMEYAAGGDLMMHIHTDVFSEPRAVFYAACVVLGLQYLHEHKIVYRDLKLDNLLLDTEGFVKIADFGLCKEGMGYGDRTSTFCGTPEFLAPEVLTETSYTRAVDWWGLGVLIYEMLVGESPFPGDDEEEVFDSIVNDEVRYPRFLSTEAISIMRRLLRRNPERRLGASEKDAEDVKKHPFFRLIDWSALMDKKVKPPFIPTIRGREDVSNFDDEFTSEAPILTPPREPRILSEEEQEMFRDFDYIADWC

Chain of Tyrosine-protein kinase Fer (Homo sapiens) (P16591 whole entry, looked up): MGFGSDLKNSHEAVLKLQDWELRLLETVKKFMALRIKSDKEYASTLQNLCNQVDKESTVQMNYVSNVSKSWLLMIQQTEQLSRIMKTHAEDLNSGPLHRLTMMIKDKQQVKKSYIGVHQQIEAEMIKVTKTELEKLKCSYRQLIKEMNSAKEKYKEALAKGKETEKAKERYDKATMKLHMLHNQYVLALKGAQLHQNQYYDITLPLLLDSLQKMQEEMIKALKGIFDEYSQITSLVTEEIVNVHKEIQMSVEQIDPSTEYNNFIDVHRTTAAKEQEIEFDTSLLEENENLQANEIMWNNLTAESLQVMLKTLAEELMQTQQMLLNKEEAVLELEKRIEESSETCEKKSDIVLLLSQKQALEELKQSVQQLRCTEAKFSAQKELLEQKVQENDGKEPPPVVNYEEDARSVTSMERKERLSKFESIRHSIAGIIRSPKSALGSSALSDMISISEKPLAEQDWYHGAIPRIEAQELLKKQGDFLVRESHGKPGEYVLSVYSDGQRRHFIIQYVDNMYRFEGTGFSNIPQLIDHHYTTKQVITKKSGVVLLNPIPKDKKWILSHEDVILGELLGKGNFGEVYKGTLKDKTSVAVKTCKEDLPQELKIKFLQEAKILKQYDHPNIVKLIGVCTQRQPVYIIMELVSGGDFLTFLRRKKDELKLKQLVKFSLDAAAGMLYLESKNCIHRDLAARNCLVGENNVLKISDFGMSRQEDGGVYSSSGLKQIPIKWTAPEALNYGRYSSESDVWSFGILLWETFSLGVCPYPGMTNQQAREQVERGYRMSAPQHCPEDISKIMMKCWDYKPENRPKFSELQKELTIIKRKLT
Chain of Cyclin-dependent kinase 5/CDK5 activator 1 (Homo sapiens) (Q00535 whole entry): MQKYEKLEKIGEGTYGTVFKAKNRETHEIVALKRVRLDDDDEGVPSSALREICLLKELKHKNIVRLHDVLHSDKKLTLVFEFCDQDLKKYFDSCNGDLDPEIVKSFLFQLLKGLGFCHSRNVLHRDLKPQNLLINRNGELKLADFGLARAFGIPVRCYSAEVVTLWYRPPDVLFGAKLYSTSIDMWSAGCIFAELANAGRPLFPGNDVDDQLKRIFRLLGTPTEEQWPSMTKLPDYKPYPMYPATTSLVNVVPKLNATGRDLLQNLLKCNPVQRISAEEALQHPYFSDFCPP
Chain of Cyclin-dependent kinase 5/CDK5 activator 1 (Homo sapiens) (Q15078 99-307 partner limits assumed): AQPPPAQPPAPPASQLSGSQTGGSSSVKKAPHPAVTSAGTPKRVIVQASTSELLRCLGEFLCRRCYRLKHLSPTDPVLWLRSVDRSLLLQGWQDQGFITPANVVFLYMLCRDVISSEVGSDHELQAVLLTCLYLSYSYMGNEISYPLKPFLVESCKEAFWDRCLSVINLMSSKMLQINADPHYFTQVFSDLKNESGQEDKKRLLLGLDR
Chain of Calcium/calmodulin-dependent protein kinase type 1 (Homo sapiens) (Q14012 whole entry, looked up): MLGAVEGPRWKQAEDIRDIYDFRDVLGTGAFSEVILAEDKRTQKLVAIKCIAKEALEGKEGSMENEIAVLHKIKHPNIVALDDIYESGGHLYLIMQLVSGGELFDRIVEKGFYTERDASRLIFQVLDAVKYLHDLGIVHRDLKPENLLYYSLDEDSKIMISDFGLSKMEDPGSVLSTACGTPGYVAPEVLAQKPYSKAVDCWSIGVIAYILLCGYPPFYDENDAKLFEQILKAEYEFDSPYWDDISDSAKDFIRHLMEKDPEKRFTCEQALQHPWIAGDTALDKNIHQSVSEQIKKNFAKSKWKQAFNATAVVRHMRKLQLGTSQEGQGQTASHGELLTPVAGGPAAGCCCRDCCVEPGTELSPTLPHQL

In the case of `Cc1ccc2cc(-c3n[nH]c4ccc(NC5CCNC5)cc34)[nH]c2c1` (centres undefined), the residual activity in experiment [1] is 19%; in experiment [2], 2%; in experiment [3], 36%; in experiment [4], 76%; in experiment [5], 5%; in experiment [6] it was 35%. This compound registered a residual activity in experiment [7] of 49%.
For `Cc1ccc2cc(-c3n[nH]c4ccc(NC5CCN(Cc6ccccc6)CC5)cc34)[nH]c2c1`, the residual activity in experiment [1] was found to be 20%; in experiment [2] it was 3%; in experiment [3], 89%; in experiment [4], 90%; in experiment [5], 12%; in experiment [6] it was 75%. In experiment [7], this compound came in with a residual activity of 3%.

For the origin of these results see ChEMBL document CHEMBL1681705, “Optimisation of ITK inhibitors through successive iterative design cycles” (Bioorg Med Chem Lett, 2011).
